# Columns and labels:
# [1] = biological target: human GPR34 (Homo sapiens, UniProt Q9UPC5); assay: Human GPR34 antagonist activity indicated by changes in intracellular calcium concentration (FLIPR); assay type: cell-based; parameters: expressed in transfected cells; host or cells: CHO cells (human GPR34CHO line) stably transfected with pCR3.1 human lung Gα16; details: CHO cells expressing human GPR34/Gα16, against 2 μM lysoPS final concentration, Fluo-3AM
# Description: CHO cells expressing human GPR34/Gα were diluted to 3×10^4/100 μl in cell culture medium [nucleic acid-free Minimum Essential Alpha Medium (Invitrogen) containing 10% dialyzed fetal bovine serum (Invitrogen) 0.5 mg/ml Geneticin (Invitrogen), penicillin and streptomycin (Invitrogen)], dispensed 100 μl per well into a Black walled 96-well plate (Costar), and cultured overnight in a CO2 incubator. Changes in intracellular calcium concentration were measured with a FLIPR (Molecular Device) by the methods described below.
# 50 μg of Fluo-3AM (Dojindo) was dissolved in 21 μl of DMSO (Dojindo), an equal amount of 20% pluronic acid (Molecular Probes) was added and mixed, and this was added to 10.6 ml of assay buffer [prepared by adding 20 ml of 1 M HEPES (pH 7.4, Dojindo) to HBSS (Invitrogen), and then adding 10 ml of a solution obtained by dissolving 710 mg of Probenecid (Sigma) in 5 ml of 1 N NaOH and then adding and mixing 5 ml of the HBSS/HEPES solution)] with 105 μl of fetal bovine serum added thereto to prepare a fluorescent dye solution. The medium was removed from the cell plate, 100 μl per well of the fluorescent dye solution was immediately poured in, and the cells were cultured for 1 hour in a CO2 incubator to incorporate the fluorescent dye into the cells. After culture, the cells were washed with the aforementioned assay buffer. The compound was dissolved in DMSO (Wako Pure Chemical), diluted with DMSO as necessary, added to the aforementioned assay buffer to the target concentration and poured into the plate. To measure antagonist activity, 8 μM lysophosphatidyl serine (lysoPS, Alexis) solution (2 μM final concentration during reaction) was poured into the plate, which was set in the FLIPR. Following these preliminaries, the agonist effect was measured in the FLIPR by measuring changes in intracellular calcium concentration up to 180 seconds after addition of the sample, and after 200 seconds lysoPS was added and the antagonist effect was measured. In the case of the agonist effect, the EC50 value of the added compound was calculated from the dose reaction curve using changes in fluorescent strength from 0 to 180 seconds after the start of the reaction. In the case of the antagonist effect, the IC50 was calculated from the dose reaction curve using changes in maximum fluorescent strength after 200 to 380 seconds of reaction time. The data was analyzed using “GraphPad PRISM4”.
# Chain of human GPR34 (Q9UPC5 whole entry): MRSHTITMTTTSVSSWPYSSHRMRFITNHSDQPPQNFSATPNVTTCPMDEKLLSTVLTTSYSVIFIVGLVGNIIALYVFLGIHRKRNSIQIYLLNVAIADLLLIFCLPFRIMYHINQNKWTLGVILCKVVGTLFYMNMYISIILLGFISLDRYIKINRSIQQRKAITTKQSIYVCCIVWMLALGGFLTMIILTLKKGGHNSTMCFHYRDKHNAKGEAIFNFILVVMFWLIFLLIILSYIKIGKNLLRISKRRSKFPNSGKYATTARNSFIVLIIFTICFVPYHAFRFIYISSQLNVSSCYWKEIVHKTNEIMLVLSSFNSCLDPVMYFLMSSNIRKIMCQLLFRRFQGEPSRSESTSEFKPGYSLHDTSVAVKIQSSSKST
compound,measurement,setting,value
"O=C(N[C@@H](Cc1ccc(OCc2ccccc2)cc1)C(=O)O)c1cc2ccc(-c3ccc(Cl)cc3)cc2s1 [Example C122, O-Benzyl-N-{[6-(4-chlorophenyl)-1-benzothiophene-2-yl]carbonyl}tyrosine]",melting point,,237 to 239 °C
same,IC50,[1],≤ 1 µM
"O=C(N[C@@H](Cc1ccc(OCc2ccccc2)cc1)C(=O)O)c1cc2cc(-c3ccc(Cl)cc3)ccc2s1 [Example C123, O-Benzyl-N-{[5-(4-chlorophenyl)-1-benzothiophene-2-yl]carbonyl}tyrosine]",melting point,,206 to 207 °C
same,IC50,[1],≤ 1 µM
"O=C(N[C@@H](Cc1ccc(OCc2ccccc2)cc1)C(=O)O)c1cc2cc(C#Cc3ccccc3)ccc2s1 [Example C139, O-Benzyl-N-{[5-(phenylethynyl)-1-benzothiophene-2-yl]carbonyl}tyrosine]",melting point,,198 to 199 °C
same,IC50,[1],≤ 1 µM
"Cc1c(C(=O)N[C@@H](Cc2ccc(OCc3ccccc3)cc2)C(=O)O)oc2ccc(-c3ccc(Cl)cc3)cc12 [Example C142, O-Benzyl-N-{[5-(4-chlorophenyl)-3-methyl1-benzofuran-2-yl]carbonyl}tyrosine]",melting point,,209 to 210 °C
same,IC50,[1],≤ 1 µM
"O=C(N[C@@H](Cc1ccc(OCc2ccccc2)cc1)C(=O)O)c1cc2ccc(-c3ccc(Cl)cc3)cc2o1 [Example C143, O-Benzyl-N-{[6-(4-chlorophenyl)-1-benzofuran-2-yl]carbonyl}tyrosine]",melting point,,170 to 171 °C
same,IC50,[1],≤ 1 µM
"O=C(N[C@@H](Cc1ccc(OCc2ccccc2)cc1)C(=O)O)c1nc2ccc(/C=C/c3ccccc3)cc2[nH]1 [Example C144, O-Benzyl-N-({6-[(E)-2-phenylethenyl]-1H-benzimidazol-2-yl)carbonyl)tyrosine]",melting point,,247 °C (dec.)
same,IC50,[1],≤ 1 µM
"O=C(N[C@@H](Cc1ccc(OCc2ccccc2)cc1)C(=O)O)C1=Cc2ccc(-c3ccc(Cl)cc3)cc2SC1 [Example C145, O-Benzyl-N-{[7-(4-chlorophenyl)-2H-thiochromene-3-yl]carbonyl}tyrosine]",melting point,,225 to 227 °C
same,IC50,[1],≤ 1 µM
"O=C(N[C@@H](Cc1ccc(OCc2ccccc2)cc1)C(=O)O)c1cc2cc(-c3ccc(Cl)cc3)ccc2[nH]c1=O [Example C146, O-Benzyl-N-{[6-(4-chlorophenyl)-2-oxo-1,2-dihydroquinolin-3-yl]carbonyl}tyrosine]",melting point,,298 to 299 °C
same,IC50,[1],≤ 1 µM
"Nc1c(C(=O)N[C@@H](Cc2ccc(OCc3ccccc3)cc2)C(=O)O)oc2cc(-c3ccc(Cl)cc3)ccc12 [Example C147, N-{[3-Amino-6-(4-chlorophenyl)-1-benzofuran-2-yl]carbonyl}-O-benzyltyrosine]",melting point,,250 °C (dec.)
same,IC50,[1],≤ 1 µM
"O=C(N[C@@H](Cc1ccc(OCc2ccccc2)cc1)C(=O)O)c1cc2cc(-c3ccc(Cl)cc3)ccc2o1 [Example C148, O-Benzyl-N-{[5-(4-chlorophenyl)-1-benzofuran-2-yl]carbonyl}tyrosine]",melting point,,250 to 251 °C
same,IC50,[1],≤ 1 µM
"O=C(N[C@@H](Cc1ccc(OCc2cccc(F)c2)cc1)C(=O)O)c1cc2ccc(-c3ccc(Cl)cc3)cc2o1 [Example C153, N-{[6-(4-Chlorophenyl)-1-benzofuran-2-yl]carbonyl}-O-(3-fluorobenzyl)tyrosine]",melting point,,162 to 163 °C
same,IC50,[1],≤ 1 µM
"O=C(N[C@@H](Cc1ccc(OCc2ccccc2)cc1)C(=O)O)c1cc2ccc(-c3ccc(Cl)cc3)cc2[nH]1 [Example C163, O-Benzyl-N-{[6-(4-chlorophenyl)-1H-indol-2-yl]carbonyl}tyrosine]",melting point,,202 to 204 °C
same,IC50,[1],≤ 1 µM
"Cn1c(C(=O)N[C@@H](Cc2ccc(OCc3ccccc3)cc2)C(=O)O)cc2ccc(-c3ccc(Cl)cc3)cc21 [Example C164, O-Benzyl-N-{[6-(4-chlorophenyl)-1-methyl-1H-indole-2-yl]carbonyl}tyrosine]",melting point,,205 to 206 °C
same,IC50,[1],≤ 1 µM
"O=C(N[C@@H](Cc1ccc(OCc2ccccc2)cc1)C(=O)O)c1cc2cc(-c3ccc(Cl)cc3)ccc2[nH]1 [Example C165, O-Benzyl-N-{[5-(4-chlorophenyl)-1H-indol-2-yl]carbonyl}tyrosine]",melting point,,239 to 240 °C
same,IC50,[1],≤ 1 µM
"Cn1c(C(=O)N[C@@H](Cc2ccc(OCc3ccccc3)cc2)C(=O)O)cc2cc(-c3ccc(Cl)cc3)ccc21 [Example C166, O-Benzyl-N-{[5-(4-chlorophenyl)-1-methyl-1H-indol-2-yl]carbonyl}tyrosine]",melting point,,238 to 239 °C
same,IC50,[1],≤ 1 µM
"O=C(N[C@@H](Cc1ccc(OCc2ccccc2)cc1)C(=O)O)c1nc2ccc(-c3ccc(Cl)cc3)cc2[nH]1 [Example C167, O-Benzyl-N-{[6-(4-chlorophenyl)-1H-benzimidazol-2-yl]carbonyl}tyrosine]",melting point,,260 to 261 °C
same,IC50,[1],≤ 1 µM
"O=C(/C=C/c1cccc(-c2ccc(Cl)cc2)c1)N[C@@H](Cc1ccc(OCc2ccccc2)cc1)C(=O)O [Example D1, O-Benzyl-N-[(2E)-3-(4′-chlorobiphenyl-3-yl)propa-2-enoyl]tyrosine]",melting point,,194 to 195 °C
same,IC50,[1],≤ 1 µM
"O=C(/C=C/c1ccc(-c2ccc(Cl)cc2)cc1)N[C@@H](Cc1ccc(OCc2ccccc2)cc1)C(=O)O [Example D2, O-Benzyl-N-[(2E)-3-(4′-chlorobiphenyl-4-yl)propa-2-enoyl]tyrosine]",melting point,,253 to 254 °C
same,IC50,[1],≤ 1 µM
"O=C(N[C@@H](Cc1ccc(OCc2ccccc2)cc1)C(=O)O)c1cn2cc(-c3ccc(Cl)cc3)ccc2n1 [Example E1, O-Benzyl-N-{[6-(4-chlorophenyl)imidazo[1,2-a]pyridin-2-yl]carbonyl}tyrosine]",melting point,,270 to 271 °C
same,IC50,[1],≤ 1 µM
"O=C(N[C@@H](Cc1ccc(OCc2ccccc2)cc1)C(=O)O)c1cn2nc(-c3ccc(Cl)cc3)ccc2n1 [Example E3, O-Benzyl-N-{[6-(4-chlorophenyl)imidazo[1,2-b]pyridazin-2-yl]carbonyl}tyrosine]",melting point,,242 to 243 °C
same,IC50,[1],≤ 1 µM
"O=C(N[C@@H](Cc1ccc(NCc2ccccc2)cc1)C(=O)O)c1cn2cc(-c3ccc(Cl)cc3)ccc2n1 [Example E5, 4-(Benzylamino)-N-([6-(4-chlorophenyl)imidazo[1,2-a]pyridin-2-yl]carbonyl}phenylalanine]",melting point,,260 °C
same,IC50,[1],≤ 1 µM
"Cc1c(-c2ccc(Cl)cc2)nc2ccc(C(=O)N[C@@H](Cc3ccc(OCc4ccccc4)cc3)C(=O)O)cn12 [Example E55, O-Benzyl-N-{[2-(4-chlorophenyl)-3-methylimidazo[1,2-a]pyridin-6-yl]carbonyl}tyrosine]",melting point,,244 to 245 °C
"O=C(N[C@@H](Cc1ccc(OCc2ccccc2)cc1)C(=O)O)c1cn2ccc(-c3ccc(Cl)cc3)cc2n1 [Example E56, O-Benzyl-N-{[7-(4-chlorophenyl)imidazo[1,2-a]pyridin-2-yl]carbonyl}-L-tyrosine]",melting point,,248 to 249 °C
"O=C(N[C@@H](Cc1ccc(OCc2ccccc2)cc1)C(=O)O)c1cn2ccc(C#Cc3ccccc3)cc2n1 [Example E58, O-Benzyl-N-{[7-(phenylethynyl)imidazo[1,2-a]pyridin-2-yl]carbonyl}tyrosine]",melting point,,243 °C (dec.)
"Cc1cccc(COc2ccc(C[C@H](NC(=O)c3cn4ccc(-c5ccc(Cl)cc5)cc4n3)C(=O)O)cc2)c1 [Example E60, N-{[7-(4-Chlorophenyl)imidazo[1,2-a]pyridin-2-yl]carbonyl}-O-(3-methylbenzyl)tyrosine]",melting point,,245 to 246 °C
"COc1cccc(COc2ccc(C[C@H](NC(=O)c3cn4ccc(-c5ccc(Cl)cc5)cc4n3)C(=O)O)cc2)c1 [Example E61, N-{[7-(4-Chlorophenyl)imidazo[1,2-a]pyridin-2-yl]carbonyl)-O-(3-methoxybenzyl)tyrosine]",melting point,,239 to 240 °C
O=C(NC(Cc1ccc(OCc2ccc(F)cc2)cc1)C(=O)O)c1cn2ccc(C#Cc3ccccc3)cc2n1 (stereo not shown) [Example E62],melting point,,243 °C (dec.)
"O=C(N[C@@H](Cc1ccc(OCc2ccc(C(F)(F)F)cc2)cc1)C(=O)O)c1cn2ccc(-c3ccc(Cl)cc3)cc2n1 [Example E66, N-{[7-(4-Chlorophenyl)imidazo[1,2-a]pyridin-2-yl]carbonyl}-O-[4-(trifluoromethyl)benzyl]tyrosine]",melting point,,263 °C

# — patent US20100130737A1, “Regulating Agent of GPR34 Receptor Function” (TAKEDA PHARMACEUTICAL COMPANY LIMITED, priority 2005, published 2010)
